The results in this text go back to patent US20080096861A1, “Chemical Compounds” (SMITHKLINE BEECHAM CORPORATION, priority 2004, published 2008).

The test system of this experiment is HIV-1 IIIB. As to the kind of experiment: HOS HIV-1 infectivity assay. Type of experiment: cell-based. Conditions: Human immunodeficiency virus 1, IIIB; as determined by the infectivity assay; strain not stated in Table 2; read-out: Activity Level. The protocol: Compounds were profiled against two HIV-1 viruses, the M-tropic (CCR5 utilizing) Ba-L strain and the T-tropic (CXCR4 utilizing) IIIB strain. Both viruses were propagated in human peripheral blood lymphocytes. Compounds were tested for there ability to block infection of the HOS cell line (expressing hCXCR4/hCCR5/hCD4/pHIV-LTR-luciferase) by either HIV-1 Ba-L or HIV-1 IIIB. Compound cytotoxicity was also examined in the absence of virus addition.
HOS cells (expressing hCXCR4/hCCR5/hCD4/pHIV-LTR-luciferase) were harvested and diluted in Dulbeccos modified Eagles media supplemented with 2% FCS and non-essential amino acid to a concentration of 60,000 cells/ml. The cells were plated into 96-well plates (100 ul per well) and the plates were placed in a tissue culture incubator (37° C.; 5% CO2/95% air) for a period of 24 h.
Subsequently, 50 ul of the desired drug solution (4 times the final concentration) was added to each well and the plates were returned to the tissue culture incubator (37° C.; 5% CO2/95% air) for 1 h. Following this incubation 50 ul of diluted virus was added to each well (approximately 2 million RLU per well of virus). The plates were returned to the tissue culture incubator (37° C.; 5% CO2/95% air) and were incubated for a further 96 h.
Following this incubation the endpoint for the virally infected cultures was quantified following addition of Steady-Glo Luciferase assay system reagent (Promega, Madison, Wis.). Cell viability or non-infected cultures was measured using a CellTiter-Glo luminescent cell viability assay system (Promega, Madison, Wis.). All luminescent readouts are performed on a Topcount luminescence detector (Packard, Meridien, Conn.).
Consider `CN(Cc1nc2ccccc2n1C[C@H]1CCCN(CCO)C1)[C@H]1CCCc2cccnc21` [Example 46, 2-((3S)-3-{[2-({Methyl[(8S)-5,6,7,8-tetrahydro-8-quinolinyl]amino}methyl)-1H-benzimidazol-1-yl]methyl}-1-piperidinyl)ethanol], for which the IC50 was below 100 nM. As to `CN(Cc1nc2ccccc2n1C[C@H]1CCCN(CCCO)C1)[C@H]1CCCc2cccnc21` [Example 47, 3-((3S)-3-{[2-({Methyl[(8S)-5,6,7,8-tetrahydro-8-quinolinyl]amino}methyl)-1H-benzimidazol-1-yl]methyl}1-piperidinyl)-1-propanol], the IC50 was below 100 nM. Regarding `CN(C)Cc1cccc(Cn2c(CN(C)C3CCCc4cccnc43)nc3ccccc32)c1` (stereo not drawn) [Example 48, N-{[1-({3-[(Dimethylamino)methyl]phenyl}methyl)-1H-benzimidazol-2-yl]methyl}-N-methyl-5,6,7,8-tetrahydro-8-quinolinamine], the IC50 lay in the range of 100 to 500 nM. Consider `CN(C)CCCCCCn1c(CN(C)C2CCCc3cccnc32)nc2ccccc21` (stereo not drawn) [Example 49, N-({1-[6-(Dimethylamino)hexyl]-1H-benzimidazol-2-yl}methyl)-N-methyl-5,6,7,8-tetrahydro-8-quinolinamine], for which the IC50 was 100 to 500 nM. On to `CN(C)Cc1ccccc1Cn1c(CN(C)C2CCCc3cccnc32)nc2ccccc21` (stereo not drawn) [Example 50, N-{[1-({2-[(Dimethylamino)methyl]phenyl}methyl)-1H-benzimidazol-2-yl]methyl}-N-methyl-5,6,7,8-tetrahydro-8-quinolinamine], for which the IC50 was in the range of 100 to 500 nM. On to `CN(Cc1nc2ccccc2n1CCCCNS(C)(=O)=O)C1CCCc2cccnc21` (stereo not drawn) [Example 51, N-[4-(2-{[Methyl(5,6,7,8-tetrahydro-8-quinolinyl)amino]methyl}-1H-benzimidazol-1-yl)butyl]methanesulfonamide], for which the IC50 is 100 to 500 nM. In the case of `NCCCn1c(CN(CCc2ccccc2)C2CCCc3cccnc32)nc2ccccc21` (stereo not drawn) [Example 52, N-{[1-(3-Aminopropyl)-1H-benzimidazol-2-yl]methyl}-N-(2-phenylethyl)-5,6,7,8-tetrahydro-8-quinolinamine], the IC50 fell in the range of 500 to 10000 nM. Take `NCCCCn1c(CN(CCc2ccccc2)C2CCCc3cccnc32)nc2ccccc21` (stereo not drawn) [Example 53, N-{[1-(4-Aminobutyl)-1H-benzimidazol-2-yl}methyl]-N-(2-phenylethyl)-5,6,7,8-tetrahydro-8-quinolinamine]: the IC50 lay in the range of 500 to 10000 nM. As for `CC(C)CCN(Cc1nc2ccccc2n1CCCCN)C1CCCc2cccnc21` (stereo not drawn) [Example 54, N-{[1-(4-Aminobutyl)-1H-benzimidazol-2-yl]methyl}-N-(3-methylbutyl)-5,6,7,8-tetrahydro-8-quinolinamine], the IC50 lay within 100 to 500 nM. For the molecule `NCCCCn1c(CN(Cc2ccccc2)C2CCCc3cccnc32)nc2ccccc21` (stereo not drawn) [Example 55, N-{[1-(4-Aminobutyl)-1H-benzimidazol-2-yl]methyl}-N-(Phenylmethyl)-5,6,7,8-tetrahydro-8-quinolinamine], the IC50 is 500 to 10000 nM. Under `CN(C)CC#CCn1c(CN(C)C2CCCc3cccnc32)nc2ccccc21` (stereo not drawn) [Example 56, N-({1-[4-(Dimethylamino)-2-butyn-1-yl}-1H-benzimidazol-2-yl]methyl)-N-methyl-5,6,7,8-tetrahydro-8-quinolinamine] stands 100 to 500 nM; under `CN(Cc1nc2ccccc2n1CCCN1CCOCC1)C1CCCc2cccnc21` (stereo not drawn) [Example 57, N-Methyl-N-([1-[3-(4-morpholinyl)propyl]-1H-benzimidazol-2-yl]methyl)-5,6,7,8-tetrahydro-8-quinolinamine], 100 to 500 nM; under `CN(Cc1nc2ccccc2n1C/C=C/CN)C1CCCc2cccnc21` (stereo not drawn) [Example 58, N-({1-[(2E)-4-Amino-2-buten-1-yl]-1H-benzimidazol-2-yl}methyl)-N-methyl-5,6,7,8-tetrahydro-8-quinolinamine], 100 to 500 nM.

In the case of `CN1CCCCC1CCCn1c(CN(C)C2CCCc3cccnc32)nc2ccccc21` (stereo not drawn) [Example 59, N-Methyl-N-({1-[3-(1-methyl-2-piperidinyl)propyl]-1H-benzimidazol-2-yl}methyl)-5,6,7,8-tetrahydro-8-quinolinamine], the IC50 was 100 to 500 nM.

Consider `CC(C)N(Cc1nc2ccccc2n1CCCN(C)C)C1CCCc2cccnc21` (stereo not drawn) [Example 60, N-({1-[3-(Dimethylamino)propyl]-1H-benzimidazol-2-yl}methyl)-N-(1-methylethyl)-5,6,7,8-tetrahydro-8-quinolinamine], for which the IC50 is below 100 nM.

For the molecule `CN(Cc1nc2ccccc2n1CCCNC(=N)N)C1CCCc2cccnc21` (stereo not drawn) [Example 61, N-[3-(2-{[Methyl(5,6,7,8-tetrahydro-8-quinolinyl)amino]methyl}-1H-benzimidazol-1-yl)propyl]guanidine], the IC50 is below 100 nM. As for `CN(Cc1nc2ccccc2n1CCCNS(=O)(=O)c1ccccc1)C1CCCc2cccnc21` (stereo not drawn) [Example 62, N-[3-(2-{[Methyl(5,6,7,8-tetrahydro-8-quinolinyl)amino]methyl}-1H-benzimidazol-1-yl)propyl]benzenesulfonamide], the IC50 was 100 to 500 nM. Under `CN(Cc1nc2ccccc2n1CCCNS(C)(=O)=O)C1CCCc2cccnc21` (stereo not drawn) [Example 63, N-[3-(2-{[Methyl(5,6,7,8-tetrahydro-8-quinolinyl)amino]methyl}-1H-benzimidazol-1-yl)propyl]methanesulfonamide] stands 100 to 500 nM; under `CC(C)CCNCCCn1c(CN(C)C2CCCc3cccnc32)nc2ccccc21` (stereo not drawn) [Example 64, N-Methyl-N-[(1-{3-[(3-methylbutyl)amino]propyl}-1H-benzimidazol-2-yl)methyl]-5,6,7,8-tetrahydro-8-quinolinamine], below 100 nM; under `CC(C)CCN(CCCn1c(CN(C)C2CCCc3cccnc32)nc2ccccc21)CCC(C)C` (stereo not drawn) [Example 65, N-[(1-[3-[Bis(3-methylbutyl)amino]propyl]-1H-benzimidazol-2-yl)methyl]-N-methyl-5,6,7,8-tetrahydro-8-quinolinamine], 500 to 10000 nM.

As for `CC(C)CCN(Cc1nc2ccccc2n1CC(C)(C)CN(C)C)C1CCCc2cccnc21` (stereo not drawn) [Example 66, N-({1-[3-(Dimethylamino)-2,2-dimethylpropyl]-1H-benzimidazol-2-yl}methyl)-N-(3-methylbutyl)-5,6,7,8-tetrahydro-8-quinolinamine], the IC50 fell in the range of 500 to 10000 nM. Turning to `CN(C)CC(C)(C)Cn1c(CN(C)C2CCCc3cccnc32)nc2ccccc21` (stereo not drawn) [Example 67, N-({1-[3-(Dimethylamino)-2,2-dimethylpropyl]-1H-benzimidazol-2-yl}methyl)-N-methyl-5,6,7,8-tetrahydro-8-quinolinamine], the IC50 was below 100 nM.

Take `CN(Cc1nc2ccccc2n1CC(C)(C)CNC(=N)N)C1CCCc2cccnc21` (stereo not drawn) [Example 68, N-[2,2-Dimethyl-3-(2-{[methyl(5,6,7,8-tetrahydro-8-quinolinyl)amino]methyl}-1H-benzimidazol-1-yl)propyl]guanidine]: the IC50 is below 100 nM. On to `CC(C)CCNCC(C)(C)Cn1c(CN(C)C2CCCc3cccnc32)nc2ccccc21` (stereo not drawn) [Example 69, N-[(1-{2,2-Dimethyl-3-[(3-methylbutyl)amino]propyl}-1H-benzimidazol-2-yl)methyl]-N-methyl-5,6,7,8-tetrahydro-8-quinolinamine], for which the IC50 was 100 to 500 nM.
